Experimental data from US8153791B2, “Substituted pyrimidinyl oxime kinase inhibitors” (Janssen Pharmaceutica N.V., priority 2005, dated 2012).

What was measured:
[1] = biological target: T1, HER-2 (Homo sapiens, UniProt P04626); assay: HER-2 Kinase Assay; format: biochemical; conditions: read-out: HER2 IC50;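 also: HER2 kinase reaction read by scintillation counting, inhibition scaled between maximum and minimum signals set on each plate, IC50 from inhibition against log concentration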
T1 construct: purchased Proqinase (Freiburg, Germany)

[2] = biological target: T2, EGFR (Homo sapiens, UniProt P00533); assay: EGFR Kinase Assay; format: biochemical;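 also: recombinant GST-tagged EGFR expressed in Sf9 cells, phosphorylating biotinylated polyGluTyr with γ-33P ATP on Streptavidin Flashplates, 1 h at 30 °C, scintillation counting, inhibition relative to plate maximum and minimum signals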
T2 construct: The intracellular portion of EGFR started at nucleotide 2189 (corresponding to amino acid 667) and ended at the termination codon; made in house; host or cells: Sf9 insect cells (baculovirus)
T2 sequence (P00533 669-1210 limits assumed): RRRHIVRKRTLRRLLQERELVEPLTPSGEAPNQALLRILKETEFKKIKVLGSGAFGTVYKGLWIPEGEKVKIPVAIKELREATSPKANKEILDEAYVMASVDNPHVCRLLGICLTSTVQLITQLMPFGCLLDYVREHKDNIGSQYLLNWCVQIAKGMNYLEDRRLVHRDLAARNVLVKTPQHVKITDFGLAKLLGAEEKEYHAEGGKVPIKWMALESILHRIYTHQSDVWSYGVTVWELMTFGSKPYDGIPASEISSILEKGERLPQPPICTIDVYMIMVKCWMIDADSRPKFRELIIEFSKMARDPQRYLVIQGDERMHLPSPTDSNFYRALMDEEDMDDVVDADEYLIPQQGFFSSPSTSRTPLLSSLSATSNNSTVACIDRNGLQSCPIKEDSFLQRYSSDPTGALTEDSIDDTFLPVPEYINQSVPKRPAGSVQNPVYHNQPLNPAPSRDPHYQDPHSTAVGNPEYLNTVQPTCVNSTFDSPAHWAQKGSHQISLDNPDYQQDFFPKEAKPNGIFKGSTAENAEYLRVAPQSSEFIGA

T1 sequence (P04626 679-1255): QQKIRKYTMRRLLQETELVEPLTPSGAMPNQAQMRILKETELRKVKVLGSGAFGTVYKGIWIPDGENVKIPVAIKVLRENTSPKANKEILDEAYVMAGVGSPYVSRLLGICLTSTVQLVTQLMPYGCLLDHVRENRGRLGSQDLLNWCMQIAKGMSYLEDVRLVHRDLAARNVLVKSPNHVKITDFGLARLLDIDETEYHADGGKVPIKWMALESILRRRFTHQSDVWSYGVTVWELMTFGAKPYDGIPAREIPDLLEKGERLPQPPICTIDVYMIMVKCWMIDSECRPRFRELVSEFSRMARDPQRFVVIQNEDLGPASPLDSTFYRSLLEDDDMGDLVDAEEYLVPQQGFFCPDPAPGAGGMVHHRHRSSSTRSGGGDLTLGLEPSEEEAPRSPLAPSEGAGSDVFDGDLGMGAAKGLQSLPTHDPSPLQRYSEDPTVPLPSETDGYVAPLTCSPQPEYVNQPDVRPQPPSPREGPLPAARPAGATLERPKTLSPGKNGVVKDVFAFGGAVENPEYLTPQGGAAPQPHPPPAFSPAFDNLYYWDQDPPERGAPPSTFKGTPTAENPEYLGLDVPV

| Structure (SMILES) | IC50 [1] [nM] | IC50 [2] [nM] |
| --- | --- | --- |
| CO/N=C/c1c(N)ncnc1Nc1ccc2nn(Cc3cccc(F)c3)cc2c1 [Cpd 5] | 3700 | 500 |
| Nc1ncnc(Nc2ccc3c(cnn3Cc3cccc(F)c3)c2)c1/C=N/OCC(=O)N1CCOCC1 [Cpd 6, (5E)-4-amino-6-[1-(3-fluoro-benzyl)-1H-indazol-5-ylamino]-pyrimidine-5-carbaldehyde O-(2-morpholin-4-yl-2-oxo-ethyl)-oxime] | 100 | – |
| CO/N=C/c1c(N)ncnc1Nc1ccc(Oc2ccccc2)c(OC)c1 [Cpd 7, (5E)-4-amino-6-(3-methoxy-4-phenoxy-phenylamino)-pyrimidine-5-carbaldehyde O-methyl-oxime] | 100 | 50 |
| COc1cc(Nc2ncnc(N)c2/C=N/OCC(=O)N2CCOCC2)ccc1Oc1ccccc1 [Cpd 8, (5E)-4-amino-6-(3-methoxy-4-phenoxy-phenylamino)-pyrimidine-5-carbaldehyde O-(2-morpholin-4-yl-2-oxo-ethyl)-oxime] | 700 | – |
| C=CCO/N=C/c1c(N)ncnc1Nc1ccc2c(cnn2Cc2cccc(F)c2)c1 [Cpd 11, (5E)-4-amino-6-[1-(3-fluoro-benzyl)-1H-indazol-5-ylamino]-pyrimidine-5-carbaldehyde O-allyl-oxime] | 10 | 8 |
| CC(C)(C)O/N=C/c1c(N)ncnc1Nc1ccc2c(cnn2Cc2cccc(F)c2)c1 [Cpd 12, (5E)-4-amino-6-[1-(3-fluoro-benzyl)-1H-indazol-5-ylamino]-pyrimidine-5-carbaldehyde O-tert-butyl-oxime] | 50 | 40 |
| CO/N=C/c1c(N)ncnc1Nc1ccc(Oc2cccnc2)c(C)c1 [Cpd 13, (5E)-4-amino-6-[3-methyl-4-(pyridin-3-yloxy)-phenylamino]-pyrimidine-5-carbaldehyde O-methyl-oxime] | 100 | 200 |
| CCO/N=C/c1c(N)ncnc1N[C@H](C)c1ccccc1 [Cpd 14] | 3100 | 100 |
| CCO/N=C/c1c(N)ncnc1N[C@@H](C)c1ccccc1 [Cpd 16, (5E)-4-amino-6-[(1S)-1-phenyl-ethylamino]-pyrimidine-5-carbaldehyde O-ethyl-oxime] | 10 | 10 |
| CCO/N=C/c1c(N)ncnc1Nc1ccc2[nH]ccc2c1 [Cpd 17, (5E)-4-amino-6-(1H-indol-5-ylamino)-pyrimidine-5-carbaldehyde O-ethyl-oxime] | 600 | 20 |
| CCO/N=C/c1c(N)ncnc1Nc1ccc(OCc2cccc(F)c2)c(Cl)c1 [Cpd 18, (5E)-4-amino-6-[3-chloro-4-(3-fluoro-benzyloxy)-phenylamino)-pyrimidine-5-carbaldehyde O-ethyl-oxime] | 40 | 30 |
| CO/N=C/c1c(N)ncnc1Nc1ccc2c(c1)CCC2 [Cpd 20] | 14100 | 1200 |
| CO/N=C/c1c(N)ncnc1Nc1ccc(OC(F)F)cc1 [Cpd 21] | 5300 | 1500 |
| CO/N=C/c1c(N)ncnc1Nc1ccc2c(c1)OCO2 [Cpd 23] | 28500 | 1900 |
| CO/N=C/c1c(N)ncnc1Nc1ccc(Oc2ccccc2)cc1 [Cpd 24, (5E)-4-amino-6-(4-phenoxy-phenylamino)-pyrimidine-5-carbaldehyde O-methyl-oxime] | 200 | 90 |
| CO/N=C/c1c(N)ncnc1Nc1ccc(OCc2ccccc2)cc1 [Cpd 25, (5E)-4-amino-6-(4-benzyloxy-phenylamino)-pyrimidine-5-carbaldehyde O-methyl-oxime] | 300 | 30 |
| CO/N=C/c1c(N)ncnc1Nc1cccc(OCc2ccccc2)c1 [Cpd 28] | 5500 | 900 |
| CO/N=C/c1c(N)ncnc1Nc1ccc(Oc2ccc(C)nc2)c(C)c1 [Cpd 29, (5E)-4-amino-6-[3-methyl-4-(6-methyl-pyridin-3-yloxy)-phenylamino]-pyrimidine-5-carbaldehyde O-methyl-oxime] | 200 | 200 |
| Nc1ncnc(Nc2ccc3c(cnn3Cc3cccc(F)c3)c2)c1/C=N/OCCOc1ccccc1 [Cpd 31, (5E)-4-amino-6-[1-(3-fluoro-benzyl)-1H-indazol-5-ylamino]-pyrimidine-5-carbaldehyde O-(2-phenoxy-ethyl)-oxime] | 300 | 20 |
| CO/N=C/c1c(N)ncnc1Nc1ccc(OCc2ccccn2)c(Cl)c1 [Cpd 32, (5E)-4-amino-6-[3-chloro-4-(pyridin-2-ylmethoxy)-phenylamino]-pyrimidine-5-carbaldehyde O-methyl-oxime] | 90 | 10 |
| CCO/N=C/c1c(N)ncnc1Nc1ccc2c(ccn2Cc2cccc(F)c2)c1 [Cpd 33, (5E)-4-amino-6-[1-(3-fluoro-benzyl)-1H-indol-5-ylamino]-pyrimidine-5-carbaldehyde O-ethyl-oxime] | 100 | 20 |
| CCO/N=C/c1c(N)ncnc1Nc1ccc(OCc2ccccc2)c(Cl)c1 [Cpd 37, (5E)-4-amino-6-(4-benzyloxy-3-chloro-phenylamino)-pyrimidine-5-carbaldehyde O-ethyl-oxime] | 90 | 20 |

| Structure (SMILES) | IC50 [1] [nM] | IC50 [2] [nM] |
| --- | --- | --- |
| CO/N=C/c1c(N)ncnc1Nc1ccc(Oc2cccnc2)c(Cl)c1 [Cpd 38, (5E)-4-amino-6-[3-chloro-4-(pyridin-3-yloxy)-phenylamino]-pyrimidine-5-carbaldehyde O-methyl-oxime] | 50 | 100 |
| CNc1ncnc(Nc2ccc(OCc3cccc(F)c3)c(Cl)c2)c1C=NOC [Cpd 39, 4-[3-Chloro-4-(3-fluoro-benzyloxy)-phenylamino]-6-methylamino-pyrimidine-5-carbaldehyde O-methyl-oxime] | 14800 | – |
| CCNc1ncnc(Nc2ccc3c(cnn3Cc3cccc(F)c3)c2)c1/C=N/OC [Cpd 40, (5E)-4-ethylamino-6-[1-(3-fluoro-benzyl)-1H-indazol-5-ylamino]-pyrimidine-5-carbaldehyde O-methyl-oxime] | 10600 | – |
| CCNc1ncnc(Nc2ccc3c(cnn3Cc3cccc(F)c3)c2)c1/C=N/OCC [Cpd 41, (5E)-4-ethylamino-6-[1-(3-fluoro-benzyl)-1H-indazol-5-ylamino]-pyrimidine-5-carbaldehyde O-ethyl-oxime] | 3600 | 400 |
| CCNc1ncnc(Nc2ccc(OCc3cccc(F)c3)c(Cl)c2)c1/C=N/OC [Cpd 42, (5E)-4-[3-chloro-4-(3-fluoro-benzyloxy)-phenylamino]-6-ethylamino-pyrimidine-5-carbaldehyde O-methyl-oxime] | – | 7800 |
| CCNc1ncnc(Nc2ccc(OCc3cccc(F)c3)c(Cl)c2)c1/C=N/OCC [Cpd 43, (5E)-4-[3-chloro-4-(3-fluoro-benzyloxy)-phenylamino]-6-ethylamino-pyrimidine-5-carbaldehyde O-ethyl-oxime] | 10400 | 1400 |
| COc1ccc(CO/N=C/c2c(N)ncnc2Nc2ccc3c(cnn3Cc3cccc(F)c3)c2)cc1 [Cpd 44, (5E)-4-amino-6-[1-(3-fluoro-benzyl)-1H-indazol-5-ylamino]-pyrimidine-5-carbaldehyde O-(4-methoxy-benzyl)-oxime] | 1600 | 70 |
| CCO/N=C/c1c(N)ncnc1Nc1ccc2c(cnn2Cc2ccccc2)c1 [Cpd 49, (5E)-4-amino-6-(1-benzyl-1H-indazol-5-ylamino)-pyrimidine-5-carbaldehyde O-ethyl-oxime] | 10 | 30 |
| CCO/N=C/c1c(N)ncnc1Nc1ccc2c(cnn2Cc2cccc(C#N)c2)c1 [Cpd 51, 3-{5-[6-amino-(5E)-5-(ethoxyimino-methyl)-pyrimidin-4-ylamino]-indazol-1-ylmethyl}-benzonitrile] | 40 | 40 |
| CCO/N=C/c1c(N)ncnc1Nc1ccc2nn(Cc3ccccc3)cc2c1 [Cpd 52] | 4500 | – |
| CCO/N=C/c1c(N)ncnc1Nc1ccc2c(cnn2Cc2cccc(Cl)c2)c1 [Cpd 55, (5E)-4-amino-6-[1-(3-chloro-benzyl)-1H-indazol-5-ylamino]-pyrimidine-5-carbaldehyde O-ethyl-oxime] | 30 | 40 |
| CCO/N=C/c1c(N)ncnc1Nc1ccc2c(cnn2Cc2cccc(OC)c2)c1 [Cpd 57] | – | 200 |
| CCO/N=C/c1c(N)ncnc1Nc1ccc2[nH]c(Cc3cccc(F)c3)nc2c1 [Cpd 58, (5E)-4-amino-6-[2-(3-fluoro-benzyl)-1H-benzoimidazol-5-ylamino]-pyrimidine-5-carbaldehyde O-ethyl-oxime] | – | 30 |
| CO/N=C/c1c(N)ncnc1Nc1cccc(Cl)c1 [Cpd 59, (5E)-4-amino-6-(3-chloro-phenylamino)-pyrimidine-5-carbaldehyde O-methyl-oxime] | – | 50 |
| CO/N=C/c1c(N)ncnc1Nc1ccc(OCc2cccc(F)c2)c(OC)c1 [Cpd 61] | – | 200 |
| CCO/N=C/c1c(N)ncnc1Nc1ccc(OCc2cccc(F)c2)c(OC)c1 [Cpd 62] | – | 200 |
| CO/N=C/c1c(N)ncnc1Nc1ccc(OC)c(Cl)c1 [Cpd 63] | 1000 | 1200 |
| Nc1ncnc(Nc2ccc3c(cnn3Cc3cccc(F)c3)c2)c1/C=N/Oc1ccccc1 [Cpd 65, (5E)-4-amino-6-[1-(3-fluoro-benzyl)-1H-indazol-5-ylamino]-pyrimidine-5-carbaldehyde O-phenyl-oxime] | 200 | 40 |
| CO/N=C/c1c(N)ncnc1Nc1ccc2oc(Cc3ccccc3)cc2c1 [Cpd 73] | 2900 | – |
| Nc1ncnc(NCc2ccc3c(c2)OCO3)c1C=NCc1ccc2c(c1)OCO2 [Cpd 119, N-benzo[1,3]dioxol-5-ylmethyl-5-[(benzo[1,3]dioxol-5-ylmethylimino)-methyl]-pyrimidine-4,6-diamine] | > 10000 | – |
| CON=Cc1c(N)ncnc1NCc1ccc2c(c1)OCO2 [Cpd 121, 4-amino-6-[(benzo[1,3]dioxol-5-ylmethyl)-amino]-pyrimidine-5-carbaldehyde O-methyl-oxime] | > 10000 | – |
